From article PMC9819389, “Antiandrogenic and Estrogenic Activity Evaluation of Oxygenated and Nitrated Polycyclic Aromatic Hydrocarbons Using Chemically Activated Luciferase Expression Assays” (International Journal of Environmental Research and Public …, 2022)
“Also recorded” adds a separate entry of the source. Like-named read-outs stand apart in the source and are kept apart here. Marks after values point to notes of the source that are not given here.

Tests used:
AR [1] = test system: AR; design: method as in Okamura et al. [22]; key: +, positive; conditions: cited from earlier work
human AR = biological target: T1, human AR (Homo sapiens, UniProt P10275); assay: AR-CALUX assay, antiandrogenic (AR antagonistic) activity, U2OS-luc cells; type: cell-based; design: host or cells: human U2OS-luc (osteoblastic osteosarcoma) cells; conditions: for REPmol (IC25): molar relative potency to flutamide, IC25-based
T1 sequence (P10275 1-920): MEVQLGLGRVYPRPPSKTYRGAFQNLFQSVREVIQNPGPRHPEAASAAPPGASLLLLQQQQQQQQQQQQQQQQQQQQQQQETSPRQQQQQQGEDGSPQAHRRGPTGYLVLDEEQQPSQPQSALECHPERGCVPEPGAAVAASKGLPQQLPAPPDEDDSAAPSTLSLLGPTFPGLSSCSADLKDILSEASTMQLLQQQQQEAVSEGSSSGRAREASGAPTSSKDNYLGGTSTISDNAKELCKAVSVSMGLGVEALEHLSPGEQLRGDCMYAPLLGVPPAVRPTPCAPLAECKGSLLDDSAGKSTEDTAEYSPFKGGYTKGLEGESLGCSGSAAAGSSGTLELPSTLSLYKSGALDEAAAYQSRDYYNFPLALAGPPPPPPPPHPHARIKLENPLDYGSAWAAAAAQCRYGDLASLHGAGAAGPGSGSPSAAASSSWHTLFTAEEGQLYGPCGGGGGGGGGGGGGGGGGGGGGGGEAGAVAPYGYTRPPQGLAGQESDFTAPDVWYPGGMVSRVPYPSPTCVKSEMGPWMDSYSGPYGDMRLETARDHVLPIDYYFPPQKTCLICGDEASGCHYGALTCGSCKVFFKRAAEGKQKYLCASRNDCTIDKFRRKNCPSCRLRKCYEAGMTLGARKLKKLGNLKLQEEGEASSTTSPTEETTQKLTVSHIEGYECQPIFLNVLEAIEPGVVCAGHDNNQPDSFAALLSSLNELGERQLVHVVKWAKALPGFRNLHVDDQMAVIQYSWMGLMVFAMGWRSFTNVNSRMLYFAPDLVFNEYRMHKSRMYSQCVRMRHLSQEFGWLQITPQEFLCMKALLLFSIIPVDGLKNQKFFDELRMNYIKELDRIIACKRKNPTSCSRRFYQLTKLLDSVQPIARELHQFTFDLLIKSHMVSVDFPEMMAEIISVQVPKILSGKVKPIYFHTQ
Protocol: The AR- and ER-CALUX assays for the polycyclic aromatic compounds were evaluated according to previously described methods, which used human U2OS-luc cells developed by BioDetection Systems b.v. (Amsterdam, The Netherlands). The cells are transfected stably with human AR and ER, respectively, and a luciferase reporter gene under their respective steroid receptor response elements. […] They were incubated at 37 °C in a humidified atmosphere containing 5% carbon dioxide. […] The medium was then removed, and the cells were lysed. A solution of luciferin was then added, and the luminescence intensity was measured with an ARVO™ X3 luminometer from PerkinElmer (Waltham, MA, USA). A sigmoid dose–response curve for a chemical was fitted to the Hill equation given by Equation (1) using SigmaPlot 11.0 from Systat Software Inc. (San Jose, CA, USA). y = min + (max − min)/(1 + (a1/x)^a^2)(1) where, y and x are the measured luciferase induction level and compound concentration, respectively. […] The REP values in mol base were obtained by dividing the ICs or ECs of the standard by the ICs or ECs of target compound, respectively.
All measurements were conducted in triplicate wells. They were repeated twice and trice in the AR- and ER-CALUX assays, respectively, for each concentration in dose–response curve. […] Cell viability was confirmed using 3-(4,5-dimethylthiazol-2-yl)-2,5-diphenyltetrazolium bromide (MTT) assay. If the cell viability was <80% in the positive control, the corresponding exposure dose was considered cytotoxic and excluded from the calculation.

human ER = biological target: T2, human ER (Homo sapiens, UniProt P03372); assay: ER-CALUX assay, estrogenic activity, U2OS-luc cells; type: cell-based; design: host or cells: human U2OS-luc (osteoblastic osteosarcoma) cells; conditions: for EC50 / REPmol (EC50): present study; for EC50: 24 h exposure; for REPmol (EC50): molar relative potency to E2, EC50-based
T2 sequence (P03372 1-595): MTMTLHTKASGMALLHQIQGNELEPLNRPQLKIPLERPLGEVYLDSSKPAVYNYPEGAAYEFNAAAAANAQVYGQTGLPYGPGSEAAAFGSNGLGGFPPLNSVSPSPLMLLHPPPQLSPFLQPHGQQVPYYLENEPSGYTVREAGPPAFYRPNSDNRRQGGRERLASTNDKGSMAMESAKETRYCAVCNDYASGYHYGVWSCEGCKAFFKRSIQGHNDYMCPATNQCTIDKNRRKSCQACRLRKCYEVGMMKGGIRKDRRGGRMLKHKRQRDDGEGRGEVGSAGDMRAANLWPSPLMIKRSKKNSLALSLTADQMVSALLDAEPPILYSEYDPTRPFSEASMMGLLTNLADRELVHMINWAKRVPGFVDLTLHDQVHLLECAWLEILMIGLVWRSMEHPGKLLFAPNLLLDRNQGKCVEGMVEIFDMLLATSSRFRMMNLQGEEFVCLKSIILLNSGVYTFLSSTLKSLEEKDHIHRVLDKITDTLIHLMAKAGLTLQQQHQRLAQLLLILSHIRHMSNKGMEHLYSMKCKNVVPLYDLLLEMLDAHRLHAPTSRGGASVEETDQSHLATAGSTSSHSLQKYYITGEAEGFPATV

AR [2] = conditions: previous study, cited from earlier work
ER = test system: ER; design: method as in Boonen et al. [33]; conditions: previous study; relative to E2; ref Boonen et al. [33]; cited from earlier work
[3] = previous study, ref Okamura et al. [22]
[4] = present study, 24 h exposure with 100 pM DHT (EC50 level)
[5] = relative to flutamide, ref Alvarez-Muñoz et al. [28]

c1ccc2c(c1)c1cccc3ccc4cccc2c4c31 [B[e]P, benzo[e]pyrene]
antiandrogenic activity, PC3 (AR [1]; [3]): + | inhibition at 10 µM (human AR; at 10 μM, maximum soluble concentration, read-out: inhibition of AR activation): > 15% | antiandrogenic activity (in words) (human AR; present study): partial antagonist | EC50 (human ER): U (key: U: < 10% response of 1 nM E2; nd: not detected) | REPmol (EC50) (human ER): U (key: U: < 10% response of 1 nM E2; nd: not detected)

c1ccc2c3c(ccc2c1)-c1cccc2cccc-3c12 [B[j]FA, benzo[j]fluoranthene]
antiandrogenic activity, PC3 (AR [1]; [3]): + | IC25 (human AR; [4]): 130 nM | REPmol (IC25) (human AR; present study): 0.84 | IC50 (human AR; read-out: IC50): 290 nM | activation (level of the response to 1 nM E2) (human ER; at 3 μM): 13% activation at 3 μM

c1ccc2c(c1)cc1ccc3cccc4c5ccccc5c2c1c34 [DB[a,l]P, dibenzo[a,l]pyrene]
IC25 (human AR; [4]): 3600 nM | REPmol (IC25) (human AR; present study): 0.037 | IC50 (human AR; read-out: IC50): 8900 nM | EC50 (human ER): U (key: U: < 10% response of 1 nM E2; nd: not detected) | REPmol (EC50) (human ER): U (key: U: < 10% response of 1 nM E2; nd: not detected)

O=C1c2ccccc2-c2cc3ccccc3cc21 [B[b]FO, 11H-benzo[b]fluoren-11-one]
IC25 (human AR; [4]): 150 nM | REPmol (IC25) (human AR; present study): 0.81 | IC50 (human AR; read-out: IC50): 530 nM | EC50 (human ER; read-out: EC50): 4800 nM

O=C1C=Cc2cccc3cccc1c23 [PhO, Phenalenone]
IC25 (human AR; [4]): 840 nM | REPmol (IC25) (human AR; present study): 0.12 | IC50 (human AR; read-out: IC50): 2000 nM | EC50 (human ER): U ^j (< 10% response of 1 nM E2) | REPmol (EC50) (human ER): U (< 10% response of 1 nM E2)

c1ccc2c(c1)-c1cccc3c1c-2cc1ccccc13 [B[b]FA, benzo[b]fluoranthene]
antiandrogenic activity, PC3 (AR [1]; [3]): +

c1cc2ccc3ccc4ccc5cccc6c(c1)c2c3c4c56 [BPe, Benzo[ghi]perylene]
antiandrogenic activity, PC3 (AR [1]): +

O=[N+]([O-])c1ccc2ccc3ccc([N+](=O)[O-])c4ccc1c2c34 [1,8-DNPy, 1,8-dinitropyrene]
REPmol (IC25) (human AR; present study): 0.91 | REPmol (EC50) (human ER): U (< 10% response of 1 nM E2)

c1ccc2c(c1)ccc1ccc3ccccc3c12 [B[c]Phe, Benzo[c]phenanthrene]
IC25 (human AR; [4]): 110 nM | REPmol (IC25) (human AR; present study): 1.0 | IC50 (human AR; read-out: IC50): 370 nM | activation (level of the response to 1 nM E2) (human ER; at 8 μM): 27% activation at 8 μM

O=C1c2ccccc2-c2cccc3cccc1c23 [BAO, 7H-benz[de]anthracen-7-one]
REPmol, U2OS (AR [2]; relative to flutamide, ref Weiss et al. [34]): 0.014 ^c | EC50 (human ER; read-out: EC50): 16000 nM

O=[N+]([O-])c1cc([N+](=O)[O-])c2ccc3cccc4ccc1c2c43 [1,3-DNPy, 1,3-dinitropyrene]
IC50 (human AR): 210 nM | inhibition of AR-mediated luciferase activity (human AR; coexposure to DHT at 10 nM (100 × EC50), compound at 3 μM): 33% | mode of AR inhibition (human AR; from coexposure to 10 nM DHT): noncompetitive | IC25 (human AR; [4]): 130 nM | REPmol (IC25) (human AR; present study): 0.88 | EC50 (human ER): U (< 10% response of 1 nM E2) | REPmol (EC50) (human ER): U (< 10% response of 1 nM E2)

O=C1C=Cc2ccccc2C1=O [NphQ, 1,2-naphthoquinone]
antiandrogenic activity (in words) (human AR; present study): not observed

O=C1c2ccccc2-c2ccc3ccccc3c21 [B[a]FO, 11H-Benzo[a]fluoren-11-one]
IC25 (human AR; [4]): 300 nM | REPmol (IC25) (human AR; present study): 0.43 | IC50 (human AR; read-out: IC50): 670 nM | EC50 (human ER; read-out: EC50): 4800 nM

CC(C)C(=O)Nc1ccc([N+](=O)[O-])c(C(F)(F)F)c1 [Flutamide, reference compound]
REPmol, U2OS (AR [2]; the standard itself, no reference given): 1

c1ccc2cc3ccccc3cc2c1 [Ant, abthracene]
REPmol, U2OS (AR [2]; relative to flutamide, ref Marin-Kuan et al. [29]): 0.2 ^d | REPmol, VM7 (ER): 8.3 × 10^−7

O=[N+]([O-])c1ccc2c(c1)-c1cccc3cccc-2c13 [8-NFA, 8-Nitrofluoranthene]
IC25 (human AR; [4]): 98 nM | REPmol (IC25) (human AR; present study): 1.3 | IC50 (human AR; read-out: IC50): 270 nM

c1ccc2c(c1)cc1ccc3cc4ccccc4c4ccc2c1c34 [DB[a,i]P, dibenzo[a,i]pyrene]
antiandrogenic activity (in words) (human AR; present study): not observed; also recorded: inactive | activation (level of the response to 1 nM E2) (human ER; at 3 μM): 14% activation at 3 μM

O=[N+]([O-])c1cc2c3ccccc3ccc2c2ccccc12 [6-NChr, 6-nitrochrysene]
IC25 (human AR; [4]): 39 nM | REPmol (IC25) (human AR; present study): 3.2 | IC50 (human AR; read-out: IC50): 88 nM

c1ccc2c(c1)-c1ccc3ccc4cccc5cc-2c1c3c45 [IdP, indeno[1,2,3-cd]pyrene]
REPmol, U2OS (AR [2]; [5]): 0.35 ^f | antiandrogenic activity, PC3 (AR [1]; [3]): +

O=C1c2ccccc2C(=O)c2cc3ccccc3cc21 [NCQ, 5,12-naphthacenequinone]
antiandrogenic activity (in words) (human AR; present study): not observed | EC50 (human ER): U (< 10% response of 1 nM E2) | REPmol (EC50) (human ER): U (< 10% response of 1 nM E2)

cyclopenta[cd]pyrene [CPP]
IC25 (human AR; [4]): 580 nM | IC50 (human AR; present study, 24 h exposure with 100 pM DHT (EC50 level), read-out: IC50): 1300 nM | REPmol (IC25) (human AR; present study): 0.14

O=C1c2cccc3ccc4ccc5cccc1c5c4c23 [BPO, 6H-benzo[cd]pyren-6-one]
antiandrogenic activity (in words) (human AR; present study): not observed | EC50 (human ER): U (key: U: < 10% response of 1 nM E2; nd: not detected) | REPmol (EC50) (human ER): U (key: U: < 10% response of 1 nM E2; nd: not detected)

c1ccc2cc3c(cc2c1)-c1cccc2cccc-3c12 [B[k]FA, benzo[k]fluoranthene]
REPmol, U2OS (AR [2]; [5]): 2.6 ^f | antiandrogenic activity, PC3 (AR [1]; [3]): +
